The text below walks through data of patent US20020146741A1, “Processes for receptpor screening” (priority 2000, published 2002).

The target in experiment [1] is T1, GR (Homo sapiens, UniProt P04150).
T1 sequence (P04150 1-777): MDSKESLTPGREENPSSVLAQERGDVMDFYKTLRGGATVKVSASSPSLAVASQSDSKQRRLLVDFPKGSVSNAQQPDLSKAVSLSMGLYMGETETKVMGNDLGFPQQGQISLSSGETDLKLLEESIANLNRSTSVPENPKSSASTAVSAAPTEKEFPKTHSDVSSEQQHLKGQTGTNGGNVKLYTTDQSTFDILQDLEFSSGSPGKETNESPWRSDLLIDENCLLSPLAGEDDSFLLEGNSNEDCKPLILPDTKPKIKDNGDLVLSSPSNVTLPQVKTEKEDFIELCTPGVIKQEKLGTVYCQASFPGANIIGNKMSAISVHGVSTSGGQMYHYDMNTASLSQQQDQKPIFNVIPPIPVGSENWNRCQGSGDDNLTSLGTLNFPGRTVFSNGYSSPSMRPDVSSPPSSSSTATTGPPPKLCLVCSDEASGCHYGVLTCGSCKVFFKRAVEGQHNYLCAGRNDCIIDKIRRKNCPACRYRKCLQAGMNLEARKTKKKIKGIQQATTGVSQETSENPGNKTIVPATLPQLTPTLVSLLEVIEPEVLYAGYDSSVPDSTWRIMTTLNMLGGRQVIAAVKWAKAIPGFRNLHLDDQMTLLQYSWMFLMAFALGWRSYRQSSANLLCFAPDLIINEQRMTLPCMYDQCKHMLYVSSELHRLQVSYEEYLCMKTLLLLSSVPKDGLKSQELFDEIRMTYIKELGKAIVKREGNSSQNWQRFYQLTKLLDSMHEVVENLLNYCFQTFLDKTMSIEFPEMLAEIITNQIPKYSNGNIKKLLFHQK
The experiment in a line: FP-based competitive ligand binding assay. Further details: GR was produced as a full length protein in insect cells and partially purified using ion exchange chromatography; made in house; host or cells: insect cells (baculovirus). The conditions noted are these: for Ki: GR 4 nM, fluorescein-dexamethasone probe, 1-hour incubation at room temperature; for RBA: relative binding affinity, dexamethasone = 100. Here is the method: FIG. 3A and B are graphs showing FP-based competition assays with recombinant GR (A) and PR-LBD (B). Serial dilutions of test steroids were prepared. […] Final incubation conditions were similar to those described in FIG. 3. The final concentration of GR used was 4 nM, and for PR-LBD it was 8 nM. After a 1-hour incubation at room temperature, the fluorescence polarization of each well was read, using wells lacking fluor as blanks.
The other criteria used for validating a fluorescent steroid conjugate is the ability of known receptor ligands to compete with the fluor for binding to the receptor.

For experiment [2], the target named is T1, GR. As to conditions: literature RBA, dexamethasone = 100; cited from earlier work.

With `CC(=O)OCC(=O)[C@@]12OC3(CCCC3)O[C@@H]1C[C@H]1[C@@H]3CCC4=CC(=O)C=C[C@]4(C)[C@@]3(F)[C@@H](O)C[C@@]12C` [Amcinonide], on GR [1], the affinity, expressed as Ki, was 1.9 nM and the RBA is reported as 40.
In the case of `C[C@]12CCC(=O)C=C1CC[C@@H]1[C@@H]2[C@@H](O)C[C@@]2(C)[C@H]1CC[C@]2(O)C(=O)CO` [Cortisol], on GR [2], the “Literature Value” is listed as 33. The RBA on GR [1] was 24.
Regarding `CC1(C)O[C@@H]2C[C@H]3[C@@H]4C[C@H](F)C5=CC(=O)C=C[C@]5(C)[C@H]4[C@@H](O)C[C@]3(C)[C@]2(C(=O)CO)O1` [Flunisolide], on GR [2], the “Literature Value” is listed as 100. For the same compound, at GR [1], the inhibitory constant (Ki) was determined as 1 nM and the RBA is 73.
At GR [1], `CC(=O)OCC(=O)[C@@]12OC(C)(C)O[C@@H]1C[C@H]1[C@@H]3C[C@H](F)C4=CC(=O)C=C[C@]4(C)[C@@]3(F)[C@@H](O)C[C@@]12C` [Fluocinonide] displayed a Ki of 4.4 nM and an RBA of 17.
As to `CC1(C)O[C@@H]2C[C@H]3[C@@H]4CCC5=CC(=O)C=C[C@]5(C)[C@@]4(F)[C@@H](O)C[C@]3(C)[C@]2(C(=O)CO)O1` [Triamcinolone acetonide], on GR [1], the Ki stood at 0.9 nM.

One may read the Ki as a dissociation constant, usually derived from enzyme kinetics or from competition with a known ligand. Low values mean higher affinity, high ones lower affinity.
